{"source": "PubChem BioAssay (NCI)", "note": "Values joined by “and” are separate entries in the source; they are usually repeats but may differ in a detail not shown here. Equal entries are not always repeated.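 How tested: cells in 96-well plates exposed to compound for 48 hours at five concentrations. GI50 marks 50% less growth. At the TGI there is no net growth.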"}
{"system": "MCF7 breast", "assay": "NCI tumour cell line growth inhibition, 48 h", "units": {"GI50": "µM"}}
{"smiles": "N#Cc1nn(-c2cc(=O)[nH]c3ccc(Cl)cc23)c(N)c1C#N", "GI50": 82.3, "TGI": "> 100 µM"}
{"smiles": "NNC(=O)CNc1cccc(Br)c1", "TGI": "> 100 µM"}
{"smiles": "NC(N)=NCCCC(=O)O", "TGI": "> 100 µM"}
{"smiles": "CCN1CCN(c2cc(C)c3cc(NC(=O)c4ccc(OC)c(OC)c4)ccc3n2)CC1", "GI50": 0.572, "TGI": "> 100 µM"}
{"smiles": "COC(=O)c1c2c(c(C)[n+]([O-])c1C)C(=O)C=C(NCc1ccc(F)cc1)C2=O", "GI50": 0.276, "TGI": "1.04 µM"}
{"smiles": "CCCC(=O)Nc1cn(COC)c(C(=O)N2C[C@@H]3C[C@]34C2=CC(=O)c2[nH]cc(C)c24)n1", "TGI": "50 µM and 11.6 µM"}
{"smiles": "CNCCOC(=O)/C=C1\\CC[C@H]2[C@@H]([C@@H](O)C(=O)[C@@H]3[C@]2(C)CC[C@H](O)[C@]3(C)C(=O)OC)[C@H]1C", "GI50": 0.368, "TGI": "1.7 µM"}
{"smiles": "Cc1nnc(Nc2ccc(NC(=O)Nc3ccc(Cl)cc3)cc2)c2ccccc12", "GI50": 2.21, "TGI": "10.9 µM"}
{"smiles": "CC(=O)ON1CCCC(P(=O)(OCCSC(=O)C(C)(C)C)OCCSC(=O)C(C)(C)C)C1=O", "note": "(centres undefined)", "GI50": 2.01, "TGI": "47.5 µM"}
{"smiles": "COC(=O)[C@]12CC[C@@H](C)[C@H](C)[C@@H]1C1=CC[C@@H]3[C@@]4(C)C[C@@H](O)[C@H](O)[C@@](C)(CO)C4=CC[C@@]3(C)[C@]1(C)CC2", "GI50": 14.2, "TGI": "31.2 µM"}
{"smiles": "Cc1nc(N)sc1N=Nc1ccccc1Br", "TGI": "70.2 µM"}
{"smiles": "NS(=O)(=O)c1ccc(N=Nc2c(O)c(C(=O)O)cc3ccccc23)cc1", "TGI": "> 100 µM"}
{"smiles": "Cc1c(N(C)C)ccc2c(=O)c3cccc(CC(=O)O)c3oc12", "TGI": "> 100 µM"}
{"smiles": "CC(NCCC(c1ccccc1)c1ccccc1)c1ccccc1", "note": "(centres undefined)", "GI50": 1.8, "TGI": "3.63 µM"}
{"smiles": "C/C(N=NC(=S)N1CC2CCC(CC2)C1)=C1\\C=CC=CN1O", "TGI": "> 100 µM"}
{"smiles": "O=C(Nc1ccc(Br)cc1F)c1cc(Cl)ccc1O", "GI50": 1.84, "TGI": "> 100 µM"}
{"smiles": "NC(N)=N/N=C/c1c(Cl)cccc1Cl", "GI50": 17.2, "TGI": "41.5 µM"}
{"smiles": "S=c1[nH]c(=S)c2cc3ccccc3nc2[nH]1", "GI50": 5.33, "TGI": "> 100 µM"}
{"smiles": "O=C(Nc1cccc(C(F)(F)F)c1)c1ccc(NC2=C(Cl)C(=O)N(Cc3ccc(Cl)cc3Cl)C2=O)cc1", "GI50": 2.15, "TGI": "4.71 µM"}
{"smiles": "CCC[CH2][Sn]([CH2]CCC)([O]C(=O)c1ccc(OC)c(OC)c1OC)[O][Sn]([CH2]CCC)([CH2]CCC)[O]C(=O)c1ccc(OC)c(OC)c1OC", "GI50": 0.133, "TGI": "1.28 µM"}
{"system": "786-0 renal", "assay": "NCI tumour cell line growth inhibition, 48 h", "units": {"GI50": "µM"}}
{"smiles": "N#Cc1nn(-c2cc(=O)[nH]c3ccc(Cl)cc23)c(N)c1C#N", "GI50": "> 100", "TGI": "> 100 µM"}
{"smiles": "NNC(=O)CNc1cccc(Br)c1", "TGI": "> 100 µM"}
{"smiles": "NC(N)=NCCCC(=O)O", "TGI": "> 100 µM"}
{"smiles": "CCN1CCN(c2cc(C)c3cc(NC(=O)c4ccc(OC)c(OC)c4)ccc3n2)CC1", "GI50": 7.12, "TGI": "> 55.3 µM"}
{"smiles": "COC(=O)c1c2c(c(C)[n+]([O-])c1C)C(=O)C=C(NCc1ccc(F)cc1)C2=O", "GI50": 1.76, "TGI": "4.39 µM"}
{"smiles": "CCCC(=O)Nc1cn(COC)c(C(=O)N2C[C@@H]3C[C@]34C2=CC(=O)c2[nH]cc(C)c24)n1", "GI50": 3.14, "TGI": "14.8 µM and 10.1 µM"}
{"smiles": "CNCCOC(=O)/C=C1\\CC[C@H]2[C@@H]([C@@H](O)C(=O)[C@@H]3[C@]2(C)CC[C@H](O)[C@]3(C)C(=O)OC)[C@H]1C", "GI50": 0.226, "TGI": "0.681 µM"}
{"smiles": "Cc1nnc(Nc2ccc(NC(=O)Nc3ccc(Cl)cc3)cc2)c2ccccc12", "GI50": 1.71, "TGI": "3.34 µM"}
{"smiles": "CC(=O)ON1CCCC(P(=O)(OCCSC(=O)C(C)(C)C)OCCSC(=O)C(C)(C)C)C1=O", "note": "(centres undefined)", "GI50": 1.41, "TGI": "90.4 µM"}
{"smiles": "COC(=O)[C@]12CC[C@@H](C)[C@H](C)[C@@H]1C1=CC[C@@H]3[C@@]4(C)C[C@@H](O)[C@H](O)[C@@](C)(CO)C4=CC[C@@]3(C)[C@]1(C)CC2", "GI50": 18.5, "TGI": "34.5 µM"}
{"smiles": "Cc1nc(N)sc1N=Nc1ccccc1Br", "TGI": "69.5 µM"}
{"smiles": "NS(=O)(=O)c1ccc(N=Nc2c(O)c(C(=O)O)cc3ccccc23)cc1", "TGI": "> 100 µM"}
{"smiles": "Cc1c(N(C)C)ccc2c(=O)c3cccc(CC(=O)O)c3oc12", "TGI": "> 100 µM"}
{"smiles": "CC(NCCC(c1ccccc1)c1ccccc1)c1ccccc1", "note": "(centres undefined)", "GI50": 1.81, "TGI": "3.67 µM"}
{"smiles": "C/C(N=NC(=S)N1CC2CCC(CC2)C1)=C1\\C=CC=CN1O", "TGI": "> 100 µM"}
{"smiles": "O=C(Nc1ccc(Br)cc1F)c1cc(Cl)ccc1O", "GI50": 2.54, "TGI": "7.62 µM"}
{"smiles": "NC(N)=N/N=C/c1c(Cl)cccc1Cl", "GI50": 18, "TGI": "43.7 µM"}
{"smiles": "S=c1[nH]c(=S)c2cc3ccccc3nc2[nH]1", "GI50": "> 100", "TGI": "> 100 µM"}
{"smiles": "O=C(Nc1cccc(C(F)(F)F)c1)c1ccc(NC2=C(Cl)C(=O)N(Cc3ccc(Cl)cc3Cl)C2=O)cc1", "GI50": 3.96, "TGI": "14.3 µM"}
{"smiles": "CCC[CH2][Sn]([CH2]CCC)([O]C(=O)c1ccc(OC)c(OC)c1OC)[O][Sn]([CH2]CCC)([CH2]CCC)[O]C(=O)c1ccc(OC)c(OC)c1OC", "GI50": 0.176, "TGI": "0.456 µM"}
{"system": "SW-620 colon", "assay": "NCI tumour cell line growth inhibition, 48 h", "units": {"GI50": "µM"}}
{"smiles": "N#Cc1nn(-c2cc(=O)[nH]c3ccc(Cl)cc23)c(N)c1C#N", "GI50": "> 100", "TGI": "> 100 µM"}
{"smiles": "NNC(=O)CNc1cccc(Br)c1", "TGI": "> 100 µM"}
{"smiles": "NC(N)=NCCCC(=O)O", "TGI": "> 100 µM"}
{"smiles": "CCN1CCN(c2cc(C)c3cc(NC(=O)c4ccc(OC)c(OC)c4)ccc3n2)CC1", "GI50": 4.21, "TGI": "> 42.3 µM"}
{"smiles": "COC(=O)c1c2c(c(C)[n+]([O-])c1C)C(=O)C=C(NCc1ccc(F)cc1)C2=O", "GI50": 0.344, "TGI": "1.38 µM"}
{"smiles": "CCCC(=O)Nc1cn(COC)c(C(=O)N2C[C@@H]3C[C@]34C2=CC(=O)c2[nH]cc(C)c24)n1", "TGI": "50 µM and 47.7 µM"}
{"smiles": "CNCCOC(=O)/C=C1\\CC[C@H]2[C@@H]([C@@H](O)C(=O)[C@@H]3[C@]2(C)CC[C@H](O)[C@]3(C)C(=O)OC)[C@H]1C", "GI50": 0.318, "TGI": "1.14 µM"}
{"smiles": "Cc1nnc(Nc2ccc(NC(=O)Nc3ccc(Cl)cc3)cc2)c2ccccc12", "GI50": 2.15, "TGI": "4.76 µM"}
{"smiles": "CC(=O)ON1CCCC(P(=O)(OCCSC(=O)C(C)(C)C)OCCSC(=O)C(C)(C)C)C1=O", "note": "(centres undefined)", "GI50": 1.59, "TGI": "> 100 µM"}
{"smiles": "COC(=O)[C@]12CC[C@@H](C)[C@H](C)[C@@H]1C1=CC[C@@H]3[C@@]4(C)C[C@@H](O)[C@H](O)[C@@](C)(CO)C4=CC[C@@]3(C)[C@]1(C)CC2", "GI50": 16.9, "TGI": "34.1 µM"}
